From PubChem BioAssay AID651993 (Sanford-Burnham Center for Chemical Genomics, 2013)
Calls of active or inactive are those of the source.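 Rule for the calls: active = compounds with mean IC50 at or below 50 µM in this heat-shock counterscreen, flagging likely artifacts; inactive = the rest.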

System: C. elegans VP596 Phsp-16.2 GFP/RFP heat-shock reporter
Assay: heat-induced hsp-16.2 reporter inhibition in nematodes, SAR follow-up, counter-screen for SKN-1 inhibitor project, whole organism, C. elegans VP596, GFP/RFP ratio fluorescence (AID 651993)

**Q.** `O=C(Nc1nc(-c2ccccc2)cs1)c1cccs1` was tested. Which IC50 did it give?
**A.** > 64 µM (inactive)

**Q.** How did the IC50 turn out when `Cc1ccc(Nc2nc(-c3cccs3)cs2)nc1` was run?
**A.** > 64 µM (inactive)

**Q.** `CCOc1cc(CNCCSc2nnnn2C)cc(Br)c1OCc1ccc(F)cc1` was tested. Which IC50 did it give?
**A.** > 64 µM (inactive)

**Q.** How did the IC50 turn out when `O=C(/C=C/Nc1ccccc1F)c1cccs1` was run?
**A.** > 64 µM (inactive)

**Q.** Which IC50 does the source give for `c1ccc(-c2nc(-c3ccncc3)no2)cc1` here?
**A.** > 64 µM (inactive)

**Q.** How did the IC50 turn out when `CCOC(=O)Nc1nc(-c2ccc(F)cc2F)cs1` was run?
**A.** > 64 µM (inactive)

**Q.** How did the IC50 turn out when `Clc1ccc(Nc2nc(-c3cccs3)cs2)nc1` was run?
**A.** > 64 µM (inactive)

**Q.** How did the IC50 turn out when `CCOc1ccc(-c2nc(-c3cccnc3)no2)cc1` was run?
**A.** > 64 µM (inactive)

**Q.** How did the IC50 turn out when `Cc1nc2ccccc2cc1OCc1ccc(F)cc1` was run?
**A.** 9.02 µM

**Q.** With `Brc1ccc(-c2nnc(-c3ccco3)o2)cc1` as the molecule, how does the IC50 read?
**A.** > 64 µM (inactive)

**Q.** How did the IC50 turn out when `O=C(/C=C/Nc1ccc(F)cc1F)c1cccs1` was run?
**A.** > 64 µM (inactive)

**Q.** Which IC50 does the source give for `Clc1ccccc1-c1nnc(-c2ccccc2Cl)o1` here?
**A.** > 64 µM (inactive)

**Q.** Which IC50 does the source give for `Clc1ccc(-c2nnc(-c3ccco3)o2)cc1` here?
**A.** > 64 µM (inactive)

**Q.** `O=C(/C=C/Nc1ccc(F)c(F)c1)c1cccs1` was tested. Which IC50 did it give?
**A.** > 64 µM (inactive)

**Q.** `Cc1ccc(-c2noc(-c3cccs3)n2)cc1` was tested. Which IC50 did it give?
**A.** > 64 µM (inactive)

**Q.** With `O=C(Nc1nc(-c2ccc(Cl)s2)cs1)c1ccccc1` as the molecule, how does the IC50 read?
**A.** > 64 µM (inactive)

**Q.** With `O=C(Nc1nccs1)c1ccc2ccccc2n1` as the molecule, how does the IC50 read?
**A.** > 64 µM (inactive)

**Q.** Which IC50 does the source give for `O=C(/C=C/Nc1ccc(Br)cc1F)c1ccco1` here?
**A.** > 64 µM (inactive)

**Q.** How did the IC50 turn out when `O=C(/C=C/c1ccc(Br)cc1)c1ccc(NC2=NCCCS2)cc1` was run?
**A.** > 64 µM (inactive)

**Q.** With `O=C(/C=C/c1cccs1)c1ccc(Br)cc1` as the molecule, how does the IC50 read?
**A.** > 64 µM (inactive)

**Q.** How did the IC50 turn out when `COc1cc(CNC2CCCC2)cc(Cl)c1OCc1ccc(F)cc1` was run?
**A.** > 64 µM (inactive)

**Q.** With `O=C(Nc1nc(-c2ccc(Cl)s2)cs1)c1ccco1` as the molecule, how does the IC50 read?
**A.** > 64 µM (inactive)

**Q.** With `Fc1ccc(COc2ccc(-c3nnco3)cc2)cc1` as the molecule, how does the IC50 read?
**A.** > 64 µM (inactive)

**Q.** Which IC50 does the source give for `COc1cc(CNC(C)c2ccccc2)cc(Br)c1OCc1ccc(F)cc1` (stereo not drawn) here?
**A.** > 64 µM (inactive)

**Q.** How did the IC50 turn out when `CC(C)c1ccc(C(=O)Nc2ccc(CN3CCOCC3)cc2)cc1` was run?
**A.** > 64 µM (inactive)

**Q.** Which IC50 does the source give for `COc1cc(CNC(C)(C)CO)cc(Br)c1OCc1ccc(Cl)cc1` here?
**A.** > 64 µM (inactive)

**Q.** `c1ccc(SCc2cc(-c3ccccc3)no2)cc1` was tested. Which IC50 did it give?
**A.** > 64 µM (inactive)

**Q.** For `O=C(/C=C/Nc1ccc(F)cc1F)c1ccco1`, which IC50 is on record?
**A.** > 64 µM (inactive)

**Q.** `Brc1ccc(CSc2nnc(-c3ccco3)o2)cc1` was tested. Which IC50 did it give?
**A.** > 64 µM (inactive)

**Q.** With `O=C(/C=C/Nc1ccc(F)c(Cl)c1)c1ccco1` as the molecule, how does the IC50 read?
**A.** > 64 µM (inactive)

**Q.** With `O=C(Nc1nc2c(ccc3ccccc32)s1)c1ccco1` as the molecule, how does the IC50 read?
**A.** > 64 µM (inactive)

**Q.** For `Cc1cc(OCc2cccc(Cl)c2)c(C)cc1CN1CCOCC1`, which IC50 is on record?
**A.** > 64 µM (inactive)

**Q.** For `O=C(/C=C/c1ccccc1)Nc1ccc(CN2CCOCC2)cc1`, which IC50 is on record?
**A.** > 64 µM (inactive)

**Q.** Which IC50 does the source give for `CSc1cccc(NC(=O)c2cccc3cccnc23)c1` here?
**A.** > 64 µM (inactive)

**Q.** `Fc1ccc(-c2csc(-c3ccncc3)n2)cc1` was tested. Which IC50 did it give?
**A.** > 64 µM (inactive)

**Q.** For `Cc1ccccc1-c1noc(-c2cccs2)n1`, which IC50 is on record?
**A.** > 64 µM (inactive)

**Q.** Which IC50 does the source give for `CCOC(=O)c1c(-c2ccc(-c3ccccc3)cc2)csc1NC(=O)CNCCN(C)C` here?
**A.** > 64 µM (inactive)

**Q.** Which IC50 does the source give for `CCOc1cc(CNC2CCCC2)cc(Cl)c1OCc1ccc(F)cc1` here?
**A.** > 64 µM (inactive)

**Q.** For `Fc1ccc(-c2csc(Nc3ccccn3)n2)cc1`, which IC50 is on record?
**A.** > 64 µM (inactive)

**Q.** Which IC50 does the source give for `Cc1ccc2nc(-c3ccc(NC(=S)NC4CC(C)(C)NC(C)(C)C4)cc3)sc2c1` here?
**A.** > 64 µM (inactive)

**Q.** With `COc1ccc(C(=O)Nc2nc(-c3cccs3)cs2)cc1` as the molecule, how does the IC50 read?
**A.** > 64 µM (inactive)

**Q.** Which IC50 does the source give for `c1ccc(-c2csc(-c3ccncc3)n2)cc1` here?
**A.** > 64 µM (inactive)

**Q.** `Clc1ccccc1-c1nc(-c2ccncc2)no1` was tested. Which IC50 did it give?
**A.** > 64 µM (inactive)

**Q.** How did the IC50 turn out when `Brc1ccc(CSc2nnc(-c3cccnc3)o2)cc1` was run?
**A.** > 64 µM (inactive)

**Q.** Which IC50 does the source give for `Cc1ccc(N=C/C(C(=O)C(F)(F)F)=C(\O)c2ccco2)cc1Cl` here?
**A.** > 64 µM (inactive)

**Q.** For `Cc1oc(-c2ccc(-c3ccccc3)cc2)nc1CN(C)C1CCOC1` (stereo not drawn), which IC50 is on record?
**A.** > 64 µM (inactive)

**Q.** Which IC50 does the source give for `O=C(Nc1ccc(CN2CCOCC2)cc1)c1cc2ccccc2o1` here?
**A.** > 64 µM (inactive)

**Q.** For `c1ccc(-c2csc(Nc3ccccn3)n2)cc1`, which IC50 is on record?
**A.** > 64 µM (inactive)

**Q.** Which IC50 does the source give for `c1ccc2sc(SCc3ccc(-c4nnco4)cc3)nc2c1` here?
**A.** > 64 µM (inactive)

**Q.** For `Brc1ccc(-c2nc(-c3ccccc3)no2)o1`, which IC50 is on record?
**A.** > 64 µM (inactive)

**Q.** For `c1ccc(Nc2nc(-c3cccs3)cs2)nc1`, which IC50 is on record?
**A.** > 64 µM (inactive)

**Q.** Which IC50 does the source give for `O=C(Nc1nc(-c2ccc(Cl)s2)cs1)c1cccs1` here?
**A.** > 64 µM (inactive)

**Q.** For `Clc1ccc(-c2nnc(-c3ccccc3)o2)c(Cl)c1`, which IC50 is on record?
**A.** > 64 µM (inactive)

**Q.** For `c1ccc2oc(SCc3nc4ccccc4s3)nc2c1`, which IC50 is on record?
**A.** > 64 µM (inactive)

**Q.** Which IC50 does the source give for `Cc1ccc(CSc2nnc(-c3ccco3)o2)cc1` here?
**A.** > 64 µM (inactive)

**Q.** `CCOc1cc(CNC2CCCC2)cc(Cl)c1OCc1ccccc1` was tested. Which IC50 did it give?
**A.** > 64 µM (inactive)

**Q.** For `Fc1ccc(COc2ccc(-c3nnco3)cc2)c(Cl)c1`, which IC50 is on record?
**A.** > 64 µM (inactive)

**Q.** How did the IC50 turn out when `CCc1ccc(-c2nc(-c3ccncc3)no2)cc1` was run?
**A.** > 64 µM (inactive)
